In patent US8916575B2, “Quinazoline derivatives for the treatment of viral infections and further diseases” (Janssen R&D Ireland, priority 2011, dated 2014):

Biological target: T1, human TLR8 (Homo sapiens, UniProt Q9NR97)
T1 construct: expressed in transfected cells; host or cells: HEK293
T1 sequence (Q9NR97 27-1041): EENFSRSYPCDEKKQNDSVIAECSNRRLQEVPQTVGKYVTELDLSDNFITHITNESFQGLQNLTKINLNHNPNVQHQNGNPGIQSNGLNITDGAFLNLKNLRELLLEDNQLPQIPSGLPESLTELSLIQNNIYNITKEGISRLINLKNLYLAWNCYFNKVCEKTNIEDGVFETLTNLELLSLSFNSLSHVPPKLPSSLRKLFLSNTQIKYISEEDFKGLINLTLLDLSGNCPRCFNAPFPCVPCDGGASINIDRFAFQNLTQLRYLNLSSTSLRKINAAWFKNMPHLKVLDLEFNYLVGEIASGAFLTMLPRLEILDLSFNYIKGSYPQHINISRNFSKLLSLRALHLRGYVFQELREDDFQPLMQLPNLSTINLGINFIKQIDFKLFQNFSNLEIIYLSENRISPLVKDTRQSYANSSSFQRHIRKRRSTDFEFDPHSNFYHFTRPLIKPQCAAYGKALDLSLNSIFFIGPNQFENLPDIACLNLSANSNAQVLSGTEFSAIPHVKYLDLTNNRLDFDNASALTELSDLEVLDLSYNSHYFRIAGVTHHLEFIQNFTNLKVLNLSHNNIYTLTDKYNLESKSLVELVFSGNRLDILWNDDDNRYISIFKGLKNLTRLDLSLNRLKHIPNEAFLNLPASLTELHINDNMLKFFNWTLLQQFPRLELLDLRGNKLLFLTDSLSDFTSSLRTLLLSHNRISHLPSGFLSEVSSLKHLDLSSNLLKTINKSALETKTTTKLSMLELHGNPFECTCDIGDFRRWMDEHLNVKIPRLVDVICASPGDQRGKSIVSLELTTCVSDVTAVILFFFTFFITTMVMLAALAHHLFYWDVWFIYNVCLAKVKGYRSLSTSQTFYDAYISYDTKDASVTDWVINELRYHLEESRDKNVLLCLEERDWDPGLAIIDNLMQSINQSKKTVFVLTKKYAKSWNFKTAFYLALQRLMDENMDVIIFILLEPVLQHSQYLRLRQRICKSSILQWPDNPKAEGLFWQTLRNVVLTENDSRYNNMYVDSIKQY
Test: TLR8 wild type NFκB-luc cellular reporter assay
Assay type: cell-based
Set-up: unit not given here
Conditions: HEK293 NFκB-luc reporter, 6 hours incubation; second part of table
Procedure: The ability of compounds to activate human TLR7 and/or TLR8 was assessed in a cellular reporter assay using HEK293 cells transiently transfected with a TLR7 or TLR8 expression vector and NFκB-luc reporter construct. In one instance the TLR expression construct expresses the respective wild type sequence or a mutant sequence comprising a deletion in the second leucine-rich repeat of the TLR.
Briefly, HEK293 cells were grown in culture medium (DMEM supplemented with 10% FCS and 2 mM Glutamine). For transfection of cells in 10 cm dishes, cells were detached with Trypsin-EDTA, transfected with a mix of CMV-TLR7 or TLR8 plasmid (750 ng), NFκB-luc plasmid (375 ng) and a transfection reagent and incubated 24 hours at 37° C. in a humidified 5% CO2 atmosphere. Transfected cells were then detached with Trypsin-EDTA, washed in PBS and resuspended in medium to a density of 1.67×10^5 cells/mL. Thirty microliters of cells were then dispensed into each well in 384-well plates, where 10 μL of compound in 4% DMSO was already present. Following 6 hours incubation at 37° C., 5% CO2, the luciferase activity was determined by adding 15 μl of Steady Lite Plus substrate (Perkin Elmer) to each well and readout performed on a ViewLux ultraHTS microplate imager (Perkin Elmer). Dose response curves were generated from measurements performed in quadruplicates. Lowest effective concentrations (LEC) values, defined as the concentration that induces an effect which is at least two fold above the standard deviation of the assay, were determined for each compound.

Row | Structure (SMILES) | TLR8-wt (LEC)
1 | CCCCNc1nc(N)nc2cccc(OC)c12 [Compound 9] | 0.13
2 | CCC[C@@H](CO)Nc1nc(N)nc2cccc(-c3ccccc3)c12 [Compound 10] | >25
3 | CCCCNc1nc(N)nc2cccc(OCCOC)c12 [Compound 11] | 0.17
4 | CCCCCNc1nc(N)nc2ccc(Br)cc12 [Compound 13] | 0.30
5 | CCCCNc1nc(N)nc2cc(C(=O)OC)ccc12 [Compound 17] | 1.66
6 | CCCCNc1nc(N)nc2cc(CO)ccc12 [Compound 18] | 0.13
7 | CCCCNc1nc(N)nc2ccc(-n3cnc(C)c3)cc12 [Compound 21] | 2.55
8 | CCCCNc1nc(N)nc2ccc(CO)cc12 [Compound 24] | 0.22
9 | CCC[C@@H](CCO)Nc1nc(N)nc2ccc(CC)cc12 [Compound 25] | 0.45
10 | CCC[C@@H](CCO)Nc1nc(N)nc2ccc(C(C)C)cc12 [Compound 26] | 1.97
11 | CCC[C@@H](CCO)Nc1nc(N)nc2ccc(Oc3ccc(C(F)(F)F)cc3Cl)cc12 [Compound 27] | >25
12 | CCCCNc1nc(N)nc2cc(Cl)c3c(c12)OCCO3 [Compound 28] | 0.88
13 | CCC[C@@H](CCO)Nc1nc(N)nc2ccc(Oc3ccc(C(F)(F)F)cc3)cc12 [Compound 29] | >25
14 | C#CCOc1cccc2nc(N)nc(NCCCC)c12 [Compound 30] | 0.10
15 | CCCCNc1nc(N)nc2cccc(OC(C)C)c12 [Compound 31] | 0.24
16 | CCCCNc1nc(N)nc2cccc(CCc3ccccc3)c12 [Compound 32] | 0.47
17 | CCC[C@@H](CO)Nc1nc(N)nc2cc(CO)ccc12 [Compound 33] | 0.15
18 | CCC[C@@H](CO)Nc1nc(N)nc2ccc(CO)cc12 [Compound 34] | 0.27
19 | CCCCNc1nc(N)nc2ccc(Oc3ccc(C(F)(F)F)cc3Cl)cc12 [Compound 35] | >25
20 | CCCCNc1nc(N)nc2cccc(C)c12 [Compound 36] | 0.26
21 | CCCCNc1nc(N)nc2c(F)cccc12 [Compound 37] | 0.25
22 | CCCCNc1nc(N)nc2ccc(F)cc12 [Compound 38] | 0.10
23 | CCCCNc1nc(N)nc2cc(OC)ccc12 [Compound 39] | 0.31
24 | CCCCNc1nc(N)nc2ccc(OC)cc12 [Compound 40] | 1.83

Row | Structure (SMILES) | TLR8-wt (LEC)
25 | CCCCNc1nc(N)nc2cccc(Cl)c12 [Compound 41] | 0.13
26 | CCCCNc1nc(N)nc2cc(F)c(F)cc12 [Compound 42] | 0.14
27 | CCC[C@@H](CO)Nc1nc(N)nc2c(C)cccc12 [Compound 43] | 0.12
28 | CCC[C@@H](CO)Nc1nc(N)nc2cc(C)ccc12 [Compound 44] | 0.03
29 | CCC[C@@H](CO)Nc1nc(N)nc2ccc(C)cc12 [Compound 45] | 0.03
30 | CCC[C@@H](CO)Nc1nc(N)nc2cccc(C)c12 [Compound 46] | 0.04
31 | CCC[C@@H](CO)Nc1nc(N)nc2c(F)cccc12 [Compound 47] | 0.03
32 | CCC[C@@H](CO)Nc1nc(N)nc2cc(F)ccc12 [Compound 48] | 0.01
33 | CCC[C@@H](CO)Nc1nc(N)nc2ccc(F)cc12 [Compound 49] | 0.03
34 | CCC[C@@H](CO)Nc1nc(N)nc2cccc(F)c12 [Compound 50] | 0.00
35 | CCCC[C@@H](CO)Nc1nc(N)nc2ccc(C)cc12 [Compound 51] | 0.04
36 | CCCC[C@@H](CO)Nc1nc(N)nc2cccc(C)c12 [Compound 52] | 0.03
37 | CCC[C@@H](CCO)Nc1nc(N)nc2cc(C)ccc12 [Compound 53] | 0.05
38 | CCC[C@@H](CCO)Nc1nc(N)nc2ccc(C)cc12 [Compound 54] | 0.43
39 | CCC[C@@H](CO)Nc1nc(N)nc2cc(OC)ccc12 [Compound 56] | 0.04
40 | CCC[C@@H](CO)Nc1nc(N)nc2ccc(OC)cc12 [Compound 57] | 0.53
41 | CCC[C@@H](CO)Nc1nc(N)nc2cccc(OC)c12 [Compound 58] | 0.03
42 | CCCC[C@@H](CO)Nc1nc(N)nc2c(F)cccc12 [Compound 59] | 0.04
43 | CCCC[C@@H](CO)Nc1nc(N)nc2cc(F)ccc12 [Compound 60] | 0.01
44 | CCCC[C@@H](CO)Nc1nc(N)nc2ccc(F)cc12 [Compound 61] | 0.05
45 | CCCC[C@@H](CO)Nc1nc(N)nc2cccc(F)c12 [Compound 62] | 0.01
46 | CCC[C@@H](CCO)Nc1nc(N)nc2c(F)cccc12 [Compound 63] | 0.15
47 | CCC[C@@H](CCO)Nc1nc(N)nc2cc(F)ccc12 [Compound 64] | 0.03
48 | CCC[C@@H](CCO)Nc1nc(N)nc2ccc(F)cc12 [Compound 65] | 0.44

Row | Structure (SMILES) | TLR8-wt (LEC)
49 | CCC[C@@H](CCO)Nc1nc(N)nc2cccc(F)c12 [Compound 66] | 0.02
50 | CC[C@H](C)[C@@H](CO)Nc1nc(N)nc2c(F)cccc12 [Compound 67] | 0.11
51 | CC[C@H](C)[C@@H](CO)Nc1nc(N)nc2ccc(F)cc12 [Compound 68] | 0.33
52 | CCC[C@@H](CO)Nc1nc(N)nc2c(Cl)cccc12 [Compound 69] | 0.38
53 | CCC[C@@H](CO)Nc1nc(N)nc2cc(Cl)ccc12 [Compound 70] | 0.01
54 | CCC[C@@H](CO)Nc1nc(N)nc2cccc(Cl)c12 [Compound 71] | 0.01
55 | CCC[C@@H](CO)Nc1nc(N)nc2cc(F)c(F)cc12 [Compound 72] | 0.02
56 | CCCC[C@@H](CCO)Nc1nc(N)nc2cc(C)ccc12 [Compound 73] | 0.06
57 | CCCC[C@@H](CCO)Nc1nc(N)nc2ccc(C)cc12 [Compound 74] | 0.25
58 | CCCC[C@@H](CCO)Nc1nc(N)nc2cccc(C)c12 [Compound 75] | 0.06
59 | CCCC[C@@H](CO)Nc1nc(N)nc2cc(OC)ccc12 [Compound 76] | 0.04
60 | CCCC[C@@H](CO)Nc1nc(N)nc2ccc(OC)cc12 [Compound 77] | 0.62
61 | CCC[C@@H](CCO)Nc1nc(N)nc2cc(OC)ccc12 [Compound 78] | 0.13
62 | CCC[C@@H](CCO)Nc1nc(N)nc2ccc(OC)cc12 [Compound 79] | 2.97
63 | CC[C@H](C)[C@@H](CO)Nc1nc(N)nc2ccc(OC)cc12 [Compound 80] | 4.10
64 | CCCC[C@@H](CCO)Nc1nc(N)nc2c(F)cccc12 [Compound 81] | 0.16
65 | CCCC[C@@H](CCO)Nc1nc(N)nc2cc(F)ccc12 [Compound 82] | 0.03
66 | CCCC[C@@H](CCO)Nc1nc(N)nc2ccc(F)cc12 [Compound 83] | 0.42
67 | CCCC[C@@H](CCO)Nc1nc(N)nc2cccc(F)c12 [Compound 84] | 0.10
68 | CCCCNc1nc(N)nc2ccc(Br)cc12 [Compound 85] | 0.10
69 | CCC[C@@H](CO)Nc1nc(N)nc2cc(C(=O)OC)ccc12 [Compound 86] | 0.22
70 | CCCC[C@@H](CCO)Nc1nc(N)nc2cc(OC)ccc12 [Compound 87] | 0.16
71 | CCCC[C@@H](CCO)Nc1nc(N)nc2ccc(OC)cc12 [Compound 88] | 2.81
72 | CCCCNc1nc(N)nc2cc(OC)c(OCc3ccccc3)cc12 [Compound 89] | 2.22
